Experimental findings from a melting point compilation (Tetko et al.; mined from patent text by program, amines drawn as free bases though some values may be those of a salt) are described below.

Residues, ends and D or L forms follow the SMILES beside them. *: point of attachment. Boc = CC(C)(C)OC(=O)*; NHNH2 = NN*

As usually defined, the melting point is the temperature of the solid-liquid transition. As to `CCN(CC)C(=O)C(C)Oc1cc(-c2ccccc2)cc2ccccc12` (stereo unspecified), the melting point was found to be 109 °C. Consider `CSCCC(NC(=O)C(CCCCNC(=O)OC(C)(C)C)NC(=O)C(Cc1ccc(O)cc1)NC(=O)C1CCCN1)C(=O)NN` (stereo unspecified) (H-PYK(Boc)M-NHNH2; configuration not given here), for which the melting point fell in the range of 206 to 207 °C. `NC(N)=Nc1nc(-c2cccc(-c3n[nH]c(N)n3)n2)cs1`: the melting point was above 300 °C. For `CN1CCN(C2=Cc3ccccc3Sc3cc(Cl)c(Cl)cc32)CC1`, the melting point was 157 to 159 °C.

`CCC(Cl)(CC)CC(=O)c1cc(C(C)(C)C)c(O)c(C(C)(C)C)c1` came in with a melting point of 72 °C.

In turn, `Cn1nnc(-c2ccc(C=Cc3ccc(-c4nc5ccccc5o4)cc3)cc2)c1-c1nc2ccccc2o1` yielded a melting point of 246 to 249 °C. `CCOC(=O)CCNC=C(C(=O)OCC)C(=O)c1cc(F)c(Cl)c([N+](=O)[O-])c1Cl` had a melting point of 107 to 108 °C. As for `CN(C(=O)C(F)(F)F)C1(C)CN(c2nc3c(cc2F)c(=O)c(C(=O)O)cn3C(C)(C)C)C1`, the figure is 263 to 265 °C. `O=C1CCC(c2ccccc2)N1c1ccccc1` (stereo unspecified) gave a melting point of 106 to 108 °C. With `C(#Cc1ccc2[nH]ccc2c1)CCN1CCC(Cc2ccccc2)CC1`, the melting point was 165 to 166 °C. In turn, `COc1ccc(C2(c3cccc(CCc4ccccc4)n3)OCCCO2)cc1OC` showed a melting point of 86 to 87 °C.

The molecule `COc1c(C2CCN(CCCCNC(=O)c3ccc(-c4ccc(Cl)s4)nc3)CC2)ccc2c1CCCC2` yielded a melting point of 175 to 177 °C. Consider `O=C(O)Cc1cccc2c(-c3ccccc3)nccc12`, for which the melting point turned out to be 192 °C. `COc1cc2c(cc1Nc1ncc(Cl)c(Nc3cc(C(N)=O)ccc3OC)n1)CCN(C(=O)CN(C)C)CC2` showed a melting point of 226 to 233 °C.

`CNC1CCc2[nH]c3c(F)cc(F)cc3c2C1` (stereo unspecified) returned a melting point of 135 to 138 °C.

With `CCOC(=O)C1COc2c(C(=O)c3ccccc3)cc(Br)cc21` (stereo unspecified), the melting point was in the range of 100 to 101 °C. `CCCc1c(OCc2ccc(CSC#N)cc2)ccc(C(C)=O)c1O` yielded a melting point of 110 to 111 °C. In turn, `COCc1ccc(-c2ncccc2C#N)cc1` returned a melting point of 74 °C.

The molecule `COc1ccc(-c2ccc(C(=O)Nc3cc4ncc(CN5CCCCCC5)cc4cc3C)c(F)c2)cc1` yielded a melting point of 168 °C. For `O=C(O)CCc1ccnc(-c2nc(=O)c3ccc(Cl)cc3s2)c1`, the melting point is 263 to 264 °C.

For `COc1c2nc3ccccc3sc-2c(C)c(=O)c1OC`, the melting point came to 138 °C. The molecule `N#Cc1ccc2c(c1)nc(N)n2CCC(=O)O` came in with a melting point above 320 °C. In turn, `COC(=O)c1cccc(CN2C(=O)N(c3ccccc3Br)Cc3cnc(Nc4ccccc4)nc32)c1` displayed a melting point of 79 to 82 °C.

On to `CC(Cc1ccc(Oc2cc(Oc3ccccc3)nc(N3CCN(Cc4ccccc4)CC3)n2)cc1)(Oc1ccccc1)C(=O)O` (stereo unspecified), for which the melting point is 135 to 137 °C. As for `CN(C(=O)CBr)n1cccc1C(=O)c1ccccc1`, the melting point was in the range of 76 to 78 °C. The molecule `N[C@H](C(=O)O)[C@H](S)c1ccccc1` displayed a melting point of 107 to 108 °C. For the molecule `CC#CCOc1ccc(S(=O)(=O)N(C)CCC(=O)O)cc1`, the melting point lay within 90 to 110 °C. Regarding `CCCCN1CC(=O)N2[C@@H](c3ccc(N)cc3)c3[nH]c4ccccc4c3C[C@@H]2C1=O` (relative stereo), the melting point turned out to be 192 °C. The molecule `COC(=O)c1ccc(C(=O)N2CCN(c3ncccc3NC(C)C)CC2)cc1` displayed a melting point of 116 to 118 °C. The value for `Cc1cc(-n2cncn2)c2cccc(OCc3c(Cl)ccc(S(=O)(=O)N4CCC[C@H]4C(=O)NCCCN(C)C)c3Cl)c2n1` was 105 °C. Regarding `COc1cc2c(=O)cc(C(=O)O)n(C)c2ccc1=O`, the melting point was above 250 °C. Regarding `O=C(O)c1cc(Cl)c(-n2ccc(C(F)(F)F)cc2=O)c(Cl)c1`, the melting point was 259 to 260 °C. Consider `CCOc1cc(CCC2OC(=O)NC2=O)ccc1O` (stereo unspecified), for which the melting point lay within 154 to 155 °C.

`CC(=O)Nn1cnc2c(Br)csc2c1=O` displayed a melting point of 273 °C. For `CC(C)(C)OC(=O)Nc1cccc(OC2CCN(c3ccncc3)CC2)c1`, the melting point lay in the range of 165 to 166 °C. In turn, `O=C1COc2ccc3ccccc3c2N1` had a melting point of 219 to 220 °C.

With `COc1ccc(C(=O)Nc2ccc(F)c(F)c2)cc1NCc1ccc(C(=O)O)cc1`, the melting point was above 240 °C. For the molecule `CN1Cc2ccccc2CC1c1ccc(C(C)(C)C)cc1` (stereo unspecified), the melting point lay in the range of 53 to 54.5 °C. In turn, `COC(=O)c1cc(C=NO)cc([N+](=O)[O-])c1` returned a melting point of 144 to 145 °C. As for `CO/C=C(/C(=O)OC)c1c(O)c(C)nn1C`, the figure is 173 °C; as for `O=S1(=O)N(CCCN2CCN(c3ccc(O)cc3)CC2)c2cccc3c2N1CCC3`, 182 °C.

`CC1CCCN(c2cc(F)cc(C(=O)Nc3ccc(OCCN4CCOCC4)c4ccccc34)c2)C1` (stereo unspecified) came in with a melting point of 145 to 148 °C. For the molecule `CCN1CC2CCCC2C1CNC(=O)c1cc(S(N)(=O)=O)ccc1OC` (stereo unspecified), the melting point came to 232 °C. The molecule `Cc1ccc(F)cc1C1CC(=O)c2c(C)ccnc2C1` (stereo unspecified) registered a melting point of 113 to 114 °C.

As to `CC(=O)c1cccc(Oc2ncccc2NC(=O)Cc2ccc(C(C)(C)O)cc2)c1`, the melting point is 85 to 87 °C. In the case of `O=c1ccoc2c1ccc1ncccc12`, the melting point lay within 146 to 147 °C. On to `CC#Cc1ncn2c1[C@@H]1CCCN1C(=O)c1c(Cl)cccc1-2`, for which the melting point lay within 208 to 209 °C.

Turning to `CC(Oc1c(Cl)cccc1Cl)C(N)=O` (single isomer, unassigned; (-)), the melting point fell in the range of 192 to 193 °C. In turn, `CC(=S)OCc1ccc([N+](=O)[O-])cc1` gave a melting point of 55.5 to 57.5 °C.

For the molecule `FC(F)(F)CNC(=S)NCc1ccc(C(F)(F)F)cc1`, the melting point was in the range of 80 to 82 °C. The molecule `Cc1cc(Oc2ccc(C(=O)O)cc2)ccc1[N+](=O)[O-]` displayed a melting point of 187 to 190 °C. For `CCOC(=O)C1=C(C)NC(c2nccn2Cc2ccccc2)=NC1c1ccc(F)cc1Cl` (stereo unspecified), the melting point was in the range of 114 to 117 °C. As for `CCCCSc1cc(C(=O)O)cc(S(N)(=O)=O)c1Oc1ccccc1`, the figure is 222 to 224 °C; as for `COC(=O)c1ccc(OCCCNC(=O)C[C@H]2O[C@H](c3cccc(OC)c3OC)c3cc(Cl)ccc3N(CC(C)(C)CO)C2=O)cc1`, 147 to 149 °C. In turn, `C=CCn1c(SCc2cnn(-c3c(Cl)cc(C(F)(F)F)cc3Cl)n2)nc(C#N)c1C#N` gave a melting point of 125 to 127 °C. The molecule `O=C(O)c1ccc(-c2ccc3cc(O)c(C45CC6CC(CC(C6)C4)C5)cc3c2)cc1O` registered a melting point of 261 to 264 °C.

Molecule `CC(=O)On1c(C(F)(F)F)nc2ncc(Cl)cc21` had a melting point of 103 °C. The molecule `O[C@@H]1[C@H](O)[C@H](O)CO[C@H]1n1c(Br)nc2cc(Cl)ccc21` showed a melting point of 120 °C.

Turning to `CC(=O)NC[C@H]1CN(c2ccc(C3CCN(C(=O)CO)CC3)c(F)c2)C(=O)O1`, the melting point was in the range of 182 to 183 °C. `O=C1CCC(N2C(=O)c3cccc(CNC(=O)c4cc5ccccc5cn4)c3C2=O)C(=O)N1` (stereo unspecified) showed a melting point of 198 to 200 °C. `OCCCNc1nnc(NCCCO)c2cc3ccccc3cc12` had a melting point of 225 to 228 °C.

Molecule `COC1=C(OC)C(=O)c2cc(Cl)ccc2C1=O` yielded a melting point of 125 to 126 °C. For the molecule `O=C(O)c1ccc(-c2nc(-c3ccc(Oc4ccccc4)cc3)no2)cc1`, the melting point fell in the range of 278 to 279 °C. As for `C=C(C)C(=O)OCCc1ccc(N(C)C)cc1`, the figure is 42 to 43 °C. In the case of `O=C1CCC2=C1C(c1ccc(Br)cc1)C1=C(CCS1)N2` (stereo unspecified), the melting point fell in the range of 253 to 256 °C. `CC(C)NC(=O)Nc1ccnc(Br)c1` had a melting point of 136 to 138 °C. For the molecule `CCN(CC)C(=O)c1cccc(F)c1[Si](C)(C)C(C)(C)C`, the melting point lay within 50 to 51 °C.

Consider `COc1ccc(CSc2nnc(-c3ccc4nccn4c3)o2)cc1C(F)(F)F`, for which the melting point fell in the range of 146 to 147 °C.

Molecule `CC(=O)OC1CCC2(C)C(=CCC3C2CCC2(C)C(n4cnc5ccccc54)=C(C=O)CC32)C1` (stereo unspecified) had a melting point of 227 to 230 °C. `Cn1cc(C(=O)NCc2ccc(Cl)cc2)c(=O)c2cc(CN3CCOCC3)cc(C#Cc3cccnc3)c21` showed a melting point of 195 to 197 °C. The value for `C[Si]1(C)CCCCCCCC[Si](C)(C)O[Si](C)(C)CCCCCCCC[Si](C)(C)O1` was 67 to 69 °C.

`O=C(C1CCN(S(=O)(=O)c2ccc(Br)cc2)CC1)N1CCC(c2ccncc2)CC1` displayed a melting point of 154 to 155 °C.

`CN(C)C(=O)c1ccc(Nc2nc(OCC3CCCCC3)c3nc[nH]c3n2)cc1`: the melting point lay within 184 to 186 °C. Consider `CN1CC(c2ccc(S(C)(=O)=O)cc2)=C(c2ccc(Cl)cc2)C1=O`, for which the melting point fell in the range of 129 to 131 °C. In the case of `N#CC1Nc2ccccc2N2CCc3cccc1c32` (stereo unspecified), the melting point was in the range of 185 to 186 °C. Consider `Cc1nc(-n2cnn(CCNCc3ccc(F)cc3)c2=O)sc1C(=O)NCc1cccnc1`, for which the melting point lay within 106 to 107 °C. The molecule `Cc1nc2ccc(N3CC4CNCC4C3)nn2c1-c1ccnc(CN)c1` (stereo unspecified) returned a melting point of 169 °C.

The molecule `COC(=O)C12COc3cc(C(F)(F)F)ccc3C1=NN(C(=O)Nc1ccc(Br)cn1)C2` (stereo unspecified) came in with a melting point of 179 to 181 °C. For the molecule `Cc1cc(C)n2nc(OC(=S)N(C)C)cc2n1`, the melting point lay in the range of 216 to 217 °C. `COC(=O)C(C)(C)OCc1cc2cc(Cl)ccc2n1S(=O)(=O)c1cc(C)cc(C)c1` displayed a melting point of 110 to 112 °C. On to `CC(C)(C)OC(=O)c1ccc([N+](=O)[O-])c(CBr)c1`, for which the melting point lay within 61 to 65 °C.

Molecule `CC(C)(C)OC(=O)N1CCn2c(C#N)c(-c3cccc(F)c3)c(C(=O)O)c2C1` had a melting point above 210 °C. The value for `COc1c(SCCCN2CCC(Cc3ccccc3)CC2)ccnc1CSc1nc2ccccc2[nH]1` was 73 to 75 °C. As for `C#CC1(O)CCC2C3CCC4=CC(=O)CCC4C3C(C(F)F)CC21C` (stereo unspecified), the melting point was in the range of 185 to 187 °C. As for `O=C1C=CC(=O)N1c1ccc(Cl)cc1`, the figure is 109 to 110 °C; as for `CC(C)(C)OC(=O)N1C(=O)CCC1c1ccc(Br)cc1` (stereo unspecified), 122 to 124 °C.
